Literature values in US20070010426A1, “Composition for preventing and treating cardiovascular disorders” (Maxluck Biotechnology Corp., priority 2005, published 2007).

Tested on: obese mouse

chromium picolinate
Effect on blood lipids: reduce the blood lipids
